Experimental data taken from US6608069B1, “Phenyl xanthine derivatives” (SmithKline Beecham Corporation, priority 1998, dated 2003).

These molecules were tested on cytokine-stimulated human umbilical vein endothelial cells (assay: Cell Adhesion Assay: adherence of fluorescently-labelled leukocytes to endothelial cell monolayers). Conditions: inhibition of cytokine-stimulated adhesion minus basal adhesion; calcein-AM labelled leukocytes on HUVEC monolayers.
Assay type: cell-based
Description: The antiadhesion activity of compounds of the invention was determined using a modification of the previously described method, Jurgensen, C. H. et. al., J. Immunol. 144: 653-661. The adhesiveness of cytokine-stimulated human umbilical vein endothelial cells was assessed by quantitating the adherence of fluorescently-labelled (calcein-AM, Molecular Probes, Eugene, Oreg.) leukocytes to endothelial cell monolayers. Activity was determined by calculating inhibition of cytokine-stimulated adhesion minus the basal adhesion (unstimulated).

IC50 | SMILES
29 ± 3 nM | COCCOCCOCCOCCOCCOCCOCCOCCOCCOC(=O)/C=C/c1ccc(-c2nc3c(=O)n(CC4CCCCC4)c(=O)n(CC4CCCCC4)c3[nH]2)cc1 [Example 35, (E)-4-[1,3-Bis(cyclohexylmethyl)-1,2,3,6-tetrahydro-2,6-dioxo-9H-purin-8-yl)cinnamic Acid Nonaethylene Glycol Methyl Ether Ester]
98 ± 33 nM | CCCn1c(=O)c2nc(-c3ccc(/C=C/C(=O)OCCOCCOCCOCCOCCOCCOCCOCCOCCOC)cc3)[nH]c2n(CCC)c1=O [Example 37, (E)-4-(1,3-bis(propyl)-1,2,3,6-tetrahydro-2,6-dioxo-9H-purin-8-yl)cinnamic Acid Nonaethylene Glycol Methyl Ether Ester]
150 ± 83 nM | COCCOCCOCCOCCOCCOCCOCCOCCOCCOC(=O)/C=C/c1ccc(-c2nc3c(=O)n(CC4CC4)c(=O)n(CC4CC4)c3[nH]2)cc1 [Example 38, (E)-4-(1,3-bis(cyclopropylmethyl)-1,2,3,6-tetrahydro-2,6-dioxo-9H-purin-8-yl)cinnamic Acid Nonaethylene Glycol Methyl Ether Ester]
14 ± 7 nM | COCCOCCOCCOCCOCCOCCOCCOCCOCCOC(=O)/C=C/c1ccc(-c2nc3c(=O)n(CC4CCCCCC4)c(=O)n(CC4CCCCCC4)c3[nH]2)cc1 [Example 40, (E)-4-(1,3-bis(cycloheptylmethyl)-1,2,3,6-tetrahydro-2,6-dioxo-9H-purin-8-yl)cinnamic Acid Nonaethylene Glycol Methyl Ether Ester]
21 ± 12 nM | COCCOCCOCCOCCOCCOCCOCCOCCOCCOC(=O)/C=C/c1ccc(-c2nc3c(=O)n(CCC4CCCCC4)c(=O)n(CCC4CCCCC4)c3[nH]2)cc1 [Example 41, (E)-4-(1,3-bis(2-cyclohexylethyl)-1,2,3,6-tetrahydro-2,6-dioxo-9H-purin-8-yl)cinnamic Acid Nonaethylene Glycol Methyl Ether Ester]
7.1 ± 2 nM | COCCOCCOCCOCCOCCOCCOCCOCCOCCOC(=O)/C=C/c1ccc(-c2nc3c(=O)n(CC(C)C)c(=O)n(CC(C)C)c3[nH]2)cc1 [Example 43, (E)-4-(1,3-bis(2-methylpropyl)-1,2,3,6-tetrahydro-2,6-dioxo-9H-purin-8-yl)cinnamic Acid Nonaethylene Glycol Methyl Ether Ester]
42 ± 24 nM | COCCOCCOCCOCCOCCOCCOCCOCCOCCOC(=O)/C=C/c1ccc(-c2nc3c(=O)n(CC4CC5CCC4C5)c(=O)n(CC4CC5CCC4C5)c3[nH]2)cc1 (stereo not shown) [Example 45, (E)-4-(1,3-bis(bicyclo(2.2.1)hept-2-ylmethyl)-1,2,3,6-tetrahydro-2,6-dioxo-9H-purin-8-yl)cinnamic Acid Nonaethylene Glycol Methyl Ether Ester]
710 ± 410 nM | COCCOCCOCCOCCOCCOCCOCCOCCOCCOC(=O)/C=C/c1ccc(-c2nc3c(=O)n(C)c(=O)n(C)c3[nH]2)cc1 [Example 47, (E)-4-(1,3-bis(methyl)-1,2,3,6-tetrahydro-2,6-dioxo-9H-purin-8-yl)cinnamic Acid Nonaethylene Glycol Methyl Ether Ester]
< 0.1 nM | CCCCn1c(=O)n(CC2CCCCC2)c(=O)c2nc(-c3ccc(/C=C/C(=O)OCCOCCOCCOCCOCCOCCOCCOCCOCCOC)cc3)[nH]c21 [Example 48]
410 ± 60 nM | COCCOCCOCCOCCOCCOCCOCCOCCOCCOC(=O)/C=C/c1ccc(-c2nc3c(=O)n(C)c(=O)n(Cc4cccc(C#N)c4)c3[nH]2)cc1 [Example 52, (E)-4-(1-methyl-3-(3-cyanobenzyl)-1,2,3,6-tetrahydro-2,6-dioxo-9H-purin-8-yl)cinnamic Acid Nonaethylene Glycol Methyl Ether Ester]
160 ± 70 nM | COCCOCCOCCOCCOCCOCCOCCOCCOCCOC(=O)/C=C/c1ccc(-c2nc3c(=O)n(CC4CCCCC4)c(=O)n(C)c3[nH]2)cc1 [Example 56, (E)-4-((1-cyclohexylmethyl-3-methyl)-1,2,3,6-tetrahydro-2,6-dioxo-9H-purin-8-yl)cinnamic Acid Nonaethylene Glycol Methyl Ether Ester]
83 ± 41 nM | COCCOCCOCCOCCOCCOCCOCCOCCOCCOC(=O)/C=C/c1ccc(-c2nc3c(=O)[nH]c(=O)n(CC(C)C)c3[nH]2)cc1 [Example 57]
11 ± 4 nM | COCCOCCOCCOCCOCCOCCOCCOCCOCCOC(=O)/C=C/c1ccc(-c2nc3c(=O)n(CC4CCC4)c(=O)n(CC4CCC4)c3[nH]2)cc1 [Example 61, (E)-4-(1,3-bis(cyclobutylmethyl)-1,2,3,6-tetrahydro-2,6-dioxo-9H-purin-8-yl)cinnamic Acid Nonaethylene Glycol Methyl Ether Ester]
160 ± 85 nM | COCCOCCOCCOCCOCCOCCOCCOCCOCCOC(=O)/C=C/c1ccc(-c2nc3c(=O)n(C)c(=O)n(CC4CCCCC4)c3[nH]2)cc1 [Example 62]
55 ± 34 nM | COCCOCCOCCOCCOCCOCCOCCOCCOCCOC(=O)/C=C/c1ccc(-c2nc3c(=O)n(C)c(=O)n(CC(C)C)c3[nH]2)cc1 [Example 63, (E)-4-(1-methyl-3-(2-methylpropyl)-1,2,3,6-tetrahydro-2,6-dioxo-9H-purin-8-yl)cinnamic Acid Nonaethylene Glycol Methyl Ether Ester]

The next lines start with the molecule.

SMILES | IC50
CCCn1c(=O)c2nc(-c3cccc(/C=C/C(=O)OCCOCCOCCOCCOCCOCCOCCOCCOCCOC)c3)[nH]c2n(Cc2ccccc2)c1=O [Example 39, (E)-3-((1-propyl-3-benzyl)-1,2,3,6-tetrahydro-2,6-dioxo-9H-purin-8-yl)cinnamic Acid Nonaethylene Glycol Methyl Ether Ester] | 130 ± 80 nM
COCCOCCOCCOCCOCCOCCOCCOCCOCCOC(=O)/C=C/c1ccc(-c2nc3c(=O)n(-c4ccccc4)c(=O)n(-c4ccccc4)c3[nH]2)cc1 [Example 42, (E)-4-(1,3-bis(phenyl)-1,2,3,6-tetrahydro-2,6-dioxo-9H-purin-8-yl)cinnamic Acid Nonaethylene Glycol Methyl Ether Ester] | 12 ± 12 nM
COCCOCCOCCOCCOCCOCCOCCOCCOCCOC(=O)/C=C/c1cccc(-c2nc3c(=O)n(Cc4ccccc4)c(=O)n(Cc4ccccc4)c3[nH]2)c1 [Example 46, (E)-3-(1,3-bis(benzyl)-1,2,3,6-tetrahydro-2,6-dioxo-9H-purin-8-yl)cinnamic Acid Nonaethylene Glycol Methyl Ether Ester] | 890 ± 420 nM
COCCOCCOCCOCCOCCOCCOCCOCCOCCOC(=O)/C=C/c1ccc(-c2nc3c(=O)n(Cc4ccccc4)c(=S)n(Cc4ccccc4)c3[nH]2)cc1 [Example 50, (E)-4-(1,3-bis(benzyl)-1,2,3,6-tetrahydro-2-thioxo-6-oxo-9H-purin-8-yl)cinnamic Acid Nonaethylene Glycol Methyl Ether Ester] | 270 ± 150 nM
COCCOCCOCCOCCOCCOCCOCCOCCOCCOC(=O)/C=C/c1ccc(-c2nc3c(=O)n(C)c(=O)n(Cc4ccc(C#N)cc4)c3[nH]2)cc1 [Example 51, (E)-4-(1-methyl-3-(4-cyanobenzyl)-1,2,3,6-tetrahydro-2,6-dioxo-9H-purin-8-yl)cinnamic Acid Nonaethylene Glycol Methyl Ether Ester] | > 2000 nM
COCCOCCOCCOCCOCCOCCOCCOCCOCCOC(=O)/C=C/c1ccc(-c2nc3c(=O)n(Cc4cccc(F)c4)c(=O)n(Cc4cccc(F)c4)c3[nH]2)cc1 [Example 53, (E)-4-(1,3-bis(3-fluorobenzyl)-1,2,3,6-tetrahydro-2,6-dioxo-9H-purin-8-yl)cinnamic Acid Nonaethylene Glycol Methyl Ether Ester] | 39 ± 13 nM
COCCOCCOCCOCCOCCOCCOCCOCCOCCOC(=O)/C=C/c1ccc(-c2nc3c(=O)n(Cc4ccccc4F)c(=O)n(Cc4ccccc4F)c3[nH]2)cc1 [Example 54, (E)-4-(1,3-bis(2-fluorobenzyl)-1,2,3,6-tetrahydro-2,6-dioxo-9H-purin-8-yl)cinnamic Acid Nonaethylene Glycol Methyl Ether Ester] | 76 ± 28 nM
COCCOCCOCCOCCOCCOCCOCCOCCOCCOC(=O)/C=C/c1ccc(-c2nc3c(=O)n(CCc4ccccc4)c(=O)n(CCc4ccccc4)c3[nH]2)cc1 [Example 55, (E)-4-(1,3-bis(2-phenylethyl)-1,2,3,6-tetrahydro-2,6-dioxo-9H-purin-8-yl)cinnamic Acid Nonaethylene Glycol Methyl Ether Ester] | 51 ± 45 nM
COCCOCCOCCOCCOCCOCCOCCOCCOCCOC(=O)/C=C/c1ccc(-c2nc3c(=O)n(Cc4ccc(F)cc4)c(=O)n(Cc4ccc(F)cc4)c3[nH]2)cc1 [Example 58, (E)-4-(1,3-bis(4-fluorobenzyl)-1,2,3,6-tetrahydro-2,6-dioxo-9H-purin-8-yl)cinnamic Acid Nonaethylene Glycol Methyl Ether Ester] | < 0.1 nM
CCCCCCCCCCCCOCCOCCOCCOCCOCCOCCOC(=O)/C=C/c1ccc(-c2nc3c(=O)n(CC4CCCCC4)c(=O)n(CC4CCCCC4)c3[nH]2)cc1 [Example 59, (E)-4-(1,3-bis(cyclohexylmethyl)-1,2,3,6-tetrahydro-2,6-dioxo-9H-purin-8-yl)cinnamic Acid Hexaethylene Glycol dodecyl Ether Ester] | 57 ± 24 nM
CCCn1c(=O)c2nc(-c3cccc(/C=C/C(=O)OCCOCCOCCOCCOCCOCCOCCOCCOCCOC)c3)[nH]c2n(CCC)c1=O [Example 60, (E)-3-(1,3-bis(propyl)-1,2,3,6-tetrahydro-2,6-dioxo-9H-purin-8-yl)cinnamic Acid Nonaethylene Glycol Methyl Ether Ester] | > 1000 nM
COCCOCCOCCOCCOCCOCCOCCOCCOCCOC(=O)/C=C/c1ccc(-c2nc3c(=O)n(Cc4cccnc4)c(=O)n(Cc4cccnc4)c3[nH]2)cc1 [Example 64, (E)-4-(1,3-Bis(3-pyridinylmethyl)-1,2,3,6-tetrahydro-2,6-dioxo-9H-purin-8-yl)cinnamic Acid Nonaethylene Glycol Methyl Ether Ester] | > 1000 nM
COCCOCCOCCOCCOCCOCCOCCOCCOCCOC(=O)c1ccc(-c2nc3c(=O)n(CC4CCCCC4)c(=O)n(CC4CCCCC4)c3[nH]2)cc1 [Example 65, 4-(1,3-bis(cyclohexylmethyl)-1,2,3,6-tetrahydro-2,6-dioxo-9H-purin-8-yl)benzoic Acid Nonaethylene Glycol Methyl Ether Ester] | 48 ± 19 nM
